Measurements reported in the supplement of paper PMC10933113.
Where a name gives a salt, the structure may show the parent alone. ± gives the uncertainty stated by the source.

Assays:
[1] = system: KeratinoSens (HaCaT ARE-luciferase) cells; assay: efficacy of ARE luciferase induction relative to DMSO (% activity over DMSO); higher = stronger induction; settings: exposure time: 24 h
[2] = system: KeratinoSens (HaCaT ARE-luciferase) cells; assay: cytotoxicity AC50 (CellTiter-Fluor viability); higher = less cytotoxic; settings: exposure time: 24 h
[3] = system: THP-1; assay: efficacy of IL-8 induction relative to DMSO (% activity); higher = stronger induction; settings: exposure time: 18 h
[4] = system: KeratinoSens (HaCaT ARE-luciferase) cells; assay: AC50 of Nrf2/ARE luciferase induction; higher = less potent; settings: exposure time: 24 h
[5] = system: lysine peptide Ac-RFAAKAA-COOH; assay: efficacy of lysine peptide change (negative = depletion) (% activity); higher = less depletion; settings: incubation time: 24 h
[6] = system: cysteine peptide Ac-RFAACAA-COOH; assay: efficacy of cysteine peptide change (negative = depletion) (% activity); higher = less depletion; settings: incubation time: 24 h

SMILES | efficacy of lysine peptide change [5] | efficacy of cysteine peptide change [6] | efficacy of ARE luciferase induction [1] | cytotoxicity AC50 [2] [µM] | efficacy of IL-8 induction [3] | AC50 of Nrf2/ARE luciferase induction [4] [µM]
CCN(CC)CCNc1ccc(CNC=O)c2sc3ccc(OC)cc3c(=O)c12 |  |  | 189 ± 110 | 59.5 ± 26 | 3.79 ± 6.6 | 63.9
CCCCOCN(C(=O)CCl)c1c(CC)cccc1CC [Butachlor] | 2.3 ± 11 | -24.1 ± 21 | 324 ± 31 | 41.4 ± 2.8 | 22.1 ± 11 | 70.8
CCN(CC)CCOc1ccc2c(c1)C(=O)c1cc(OCCN(CC)CC)ccc1-2 [Tilorone] | 81.7 ± 28 | -43 ± 15 | 293 ± 85 | 12.6 ± 1.4 | 27.2 ± 3.2 | 22.1
C[C@]12C=CC3=C4CCC(=O)C=C4CC[C@H]3[C@@H]1CC[C@@H]2O [17beta-Trenbolone] |  |  | 189 ± 53 | 50.9 ± 20 | 32.2 ± 36 | 39.1
C/C=C1\C(=O)C[C@H]2[C@@H]3CCC4=CC(=O)CC[C@]4(C)[C@H]3CC[C@]12C [Guggulsterone Z] | 11.4 ± 10 | 2.81 ± 4.9 | 135 ± 63 |  | 7.24 ± 12 | 53.6
CC(C)=CCOc1ccc(/C=C/C(=O)c2ccc(OCC=C(C)C)cc2OCC(=O)O)cc1 [Sofalcone] | -12.4 ± 20 | 54.9 | 521 ± 240 |  | 0 | 33
Cc1cc(C2CC2)nc(Nc2ccccc2)n1 [Cyprodinil] | 57 ± 8.8 | 6 ± 10 | 41.8 ± 10 |  | 2.31 ± 4 | 35.1
O=C(NS(=O)(=O)/C=C/c1cccs1)c1ccc(F)cc1Br | 49.7 ± 18 | -6.04 ± 5.4 | 56.2 ± 110 |  | 4.43 ± 7.7 | 14.1
C=C1C[C@@H]2[C@H](CC[C@]3(C)C(=O)CC[C@@H]23)[C@@]2(C)C=CC(=O)C=C12 [Exemestane] | 97.5 ± 6.3 | -9.57 ± 9.8 | 109 ± 64 |  | 3.01 ± 5.2 | 33
CCOc1ccc2nc(S(N)(=O)=O)sc2c1 [Ethoxzolamide] | 35.1 ± 5 | 2.67 ± 4.6 | 58.7 ± 28 |  | 10.3 ± 4.8 | 25.3
C=CC(=O)OCCCCOC(=O)C=C [1,4-Butanediol diacrylate] |  |  | 336 ± 19 | 43 ± 2.8 | 16.2 ± 1.7 | 35.5
OC[P+](CO)(CO)CO [Tetrakis(hydroxymethyl)phosphonium SO4] | -40.3 ± 14 | 43.1 ± 6.6 | 126 ± 16 |  | 4.18 ± 7.2 | 29.4
CCCOC/C(=N\c1ccc(Cl)cc1C(F)(F)F)n1ccnc1 [Triflumizole] | 41.1 ± 13 | 4.17 ± 7.2 | 134 ± 58 |  | 38.3 ± 1.3 | 63.9
CC(COc1ccc(Oc2ccccc2)cc1)Oc1ccccn1 (centres undefined) [Pyriproxyfen] | -7.08 ± 11 | 8.09 ± 7 | 83.9 ± 13 |  | 4.2 ± 1.8 | 34.9
CC#Cc1cc(C)nc(Nc2ccccc2)n1 [Mepanipyrim] | 48.4 ± 24 | -2.96 ± 5.1 | 73.3 ± 15 |  | 4.67 ± 8.1 | 47.4
Nc1nnc(-c2ccc([N+](=O)[O-])o2)o1 [2-Amino-5-(5-nitro-2-furyl)-1,3,4-oxadiazole] | -11.9 ± 11 | -4.29 ± 3.9 | 45.2 ± 31 |  | 4.08 ± 7.1 | 26.2
COc1ccc(C(c2ccc(OC)cc2)C(Cl)(Cl)Cl)cc1 [Methoxychlor] | -3.51 ± 15 | 2.72 ± 4.7 | 50.9 ± 18 |  | 21.1 ± 3.3 | 43.2

The next lines start with results.

efficacy of lysine peptide change [5] | efficacy of cysteine peptide change [6] | SMILES | efficacy of ARE luciferase induction [1] | cytotoxicity AC50 [2] [µM] | efficacy of IL-8 induction [3] | AC50 of Nrf2/ARE luciferase induction [4] [µM]
-12.9 ± 12 | 1.07 ± 9.6 | O=C(O)Cn1c(C(=O)Nc2nc(-c3ccccc3Cl)cs2)cc2ccccc21 [Lintitript] | 155 ± 87 |  | 8.96 ± 8.3 | 32.9
10.5 ± 18 | 3.16 ± 5.5 | Clc1ccccc1-c1nc(-c2ccncc2)no1 [Pifexole] | 60.8 ± 7.6 |  | 4.35 ± 7.5 | 11.4
39.7 ± 4.7 | -16.7 ± 14 | O=C1Nc2ccccc2C1(c1ccc(O)cc1)c1ccc(O)cc1 [Oxyphenisatin] | 47.8 ± 12 |  | 0 | 19
58.4 ± 17 | -15.7 ± 6.5 | O=C(Nc1ccccc1)c1cc([N+](=O)[O-])ccc1Cl [2-Chloro-5-nitro-N-phenylbenzamide] | 92.4 ± 39 |  | 10.4 ± 3 | 40
-2 ± 3.5 | -4.99 ± 8.6 | O=C(Oc1ccccc1)c1cccc(C(=O)Oc2ccccc2)c1 [Diphenyl isophthalate] | 56.2 ± 20 |  | 0 | 29.8
22 ± 20 | -10.9 ± 9.8 | O=c1cc(-c2ccccc2)oc2cc(O)cc(O)c12 [Chrysin] | 210 ± 48 |  | 13.2 ± 3.6 | 53.6
85.3 ± 9.9 | -29.7 ± 11 | O=C1OC(OC(=O)c2cccnc2Nc2cccc(C(F)(F)F)c2)c2ccccc21 (centres undefined) [Talniflumate] | 1280 ± 66 |  | 9.09 ± 8.3 | 35.5
-2.31 ± 13 | 26.5 | CC(C)=CCC1=C(O)c2ccccc2C(=O)C1=O [Lapachol] | 65.3 ± 5.4 |  | 25.8 ± 1.6 | 26.7
-25.8 ± 6.1 | -26.9 ± 24 | O=CC(=O)c1ccccc1 [Phenyl glyoxal] | 522 ± 80 |  | 0 | 35.5
166 ± 21 | 38.5 ± 11 | C=CCOC(Cn1ccnc1)c1ccc(Cl)cc1Cl (centres undefined) [Imazalil sulfate] | 40.5 ± 36 |  | 0 | 29.9
90.8 ± 51 | 0 | O=C(OCc1ccccc1)c1ccc(O)cc1 [Benzylparaben] | 52.2 ± 9.2 |  | 0 | 12.1
